Source: ChEMBL document CHEMBL1201862, “PubChem BioAssay data set” (2004)
Calls of active or inactive are those of the source.

Legend:
[1] = HGIII-sPLA2 enzyme inhibition potency – biochemical, QFRET, IC50, dose response (AID 743457);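 also: green fluorescence rise as the enzyme cleaves BODIPY PC-A2 in liposomes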
[2] = viability loss in CEM21 cells – cell-based, CellTiter-Glo luminescence, cherry-picked, cytotoxicity control for viral fusion inhibitor project, dose response (AID 652042); format: functional;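 also: potency for signal decrease meaning cytotoxicity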
[3] = blockers of HIV-1 ZM109 envelope-driven cell-cell fusion – HeLa effector, CEM target cells, luciferase, cherry-pick, dose response (AID 652058); format: functional, cell-based;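 also: luciferase signal from HIV-1 Env mediated cell-cell fusion of effector and target cells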
[4] = HIV-1 AD8 envelope cell-cell fusion blockers – cherry-pick, dose response (AID 652062); format: functional, cell-based;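 also: luciferase signal from cell-cell fusion driven by HIV-1 clade B AD8 Env; potency is for inhibitors of fusion seen as a drop in luminescence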
[5] = off-target signal loss in HeLa-CEM21 co-culture – HeLa F-luc CTL cells, cherry-picked, counter-screen for HIV-1 Env fusion inhibitor project, dose response (AID 652040); format: functional, cell-based;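 also: potency for signal decrease marking cytotoxic or nonspecific inhibition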
[6] = blockers of HIV-1 envelope-mediated cell-cell fusion – cherry-pick, dose response (AID 652057); format: functional, cell-based
Insulin-degrading enzyme [7] = target: T1, Insulin-degrading enzyme (Homo sapiens, UniProt P14735); assay: cellular IDE activation of Abeta substrate cleavage – fluorescence polarization, HEK cells, dose response (AID 588439); format: functional, cell-based
T1 sequence (P14735 whole entry): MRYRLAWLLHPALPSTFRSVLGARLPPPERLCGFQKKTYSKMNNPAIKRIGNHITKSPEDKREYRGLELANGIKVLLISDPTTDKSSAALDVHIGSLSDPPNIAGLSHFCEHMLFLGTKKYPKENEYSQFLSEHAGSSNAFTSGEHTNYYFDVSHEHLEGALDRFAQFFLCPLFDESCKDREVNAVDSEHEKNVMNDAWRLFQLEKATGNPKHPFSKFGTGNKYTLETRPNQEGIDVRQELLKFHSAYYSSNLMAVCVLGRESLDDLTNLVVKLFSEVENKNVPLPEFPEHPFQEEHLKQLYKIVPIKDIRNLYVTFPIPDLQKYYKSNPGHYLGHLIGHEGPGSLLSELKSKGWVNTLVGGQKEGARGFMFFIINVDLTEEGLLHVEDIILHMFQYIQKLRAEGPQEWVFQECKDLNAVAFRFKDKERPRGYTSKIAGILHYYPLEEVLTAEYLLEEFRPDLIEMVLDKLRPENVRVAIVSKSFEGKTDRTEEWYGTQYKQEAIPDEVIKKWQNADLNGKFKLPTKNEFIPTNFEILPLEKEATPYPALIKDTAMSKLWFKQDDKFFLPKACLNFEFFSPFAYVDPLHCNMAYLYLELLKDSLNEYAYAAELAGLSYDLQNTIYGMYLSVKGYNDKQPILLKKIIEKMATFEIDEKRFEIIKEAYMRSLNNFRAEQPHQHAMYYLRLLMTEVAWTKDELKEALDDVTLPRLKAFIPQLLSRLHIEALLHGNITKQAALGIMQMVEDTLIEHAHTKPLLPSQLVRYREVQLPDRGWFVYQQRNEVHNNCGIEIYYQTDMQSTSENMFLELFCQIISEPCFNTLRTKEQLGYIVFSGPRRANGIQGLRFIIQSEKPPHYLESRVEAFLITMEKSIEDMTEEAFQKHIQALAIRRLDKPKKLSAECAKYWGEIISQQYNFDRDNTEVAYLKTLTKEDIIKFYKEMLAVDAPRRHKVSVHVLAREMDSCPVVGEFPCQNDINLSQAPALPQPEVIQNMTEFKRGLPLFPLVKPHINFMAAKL

X-box-binding protein 1 = target: T2, X-box-binding protein 1 (Homo sapiens, UniProt P17861); format: functional, Cricetulus griseus;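 also: confirmatory dose-response counter-screen serving a CHOP assay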
T2 sequence (P17861 whole entry): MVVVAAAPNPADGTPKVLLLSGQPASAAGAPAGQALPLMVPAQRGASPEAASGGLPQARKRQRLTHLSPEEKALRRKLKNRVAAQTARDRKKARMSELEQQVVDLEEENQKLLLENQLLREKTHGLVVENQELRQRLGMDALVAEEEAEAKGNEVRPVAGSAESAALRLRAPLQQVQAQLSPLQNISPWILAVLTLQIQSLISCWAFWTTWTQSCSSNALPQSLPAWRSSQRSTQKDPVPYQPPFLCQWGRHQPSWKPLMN

CHO-K1 = assay: (§1) Counterscreen for antagonists of the orexin 1 receptor (OX1R; HCRTR1): Homogeneous time resolved fluorescence (HTRF)-based cell-based dose response assay to identify antagonists of the parental CHO-K1 cell line. [Related pubchem assays (depositor defined):AID434989, AID435008, AID463079, AID485270, AID492963, AID492964, AID492965, AID493232, AID504699, AID504701]; format: functional; conditions: Cricetulus griseus
Orexin receptor type 2 [8] = target: T3, Orexin receptor type 2 (Homo sapiens, UniProt O43614); assay: Counterscreen assay for antagonists of the orexin 1 receptor (OX1R; HCRTR1): Fluorescence-based cell-based dose response assay for antagonists of the orexin 2 receptor (OX2R; HCRTR2), run by assay provider.; format: functional
T3 sequence (O43614 whole entry): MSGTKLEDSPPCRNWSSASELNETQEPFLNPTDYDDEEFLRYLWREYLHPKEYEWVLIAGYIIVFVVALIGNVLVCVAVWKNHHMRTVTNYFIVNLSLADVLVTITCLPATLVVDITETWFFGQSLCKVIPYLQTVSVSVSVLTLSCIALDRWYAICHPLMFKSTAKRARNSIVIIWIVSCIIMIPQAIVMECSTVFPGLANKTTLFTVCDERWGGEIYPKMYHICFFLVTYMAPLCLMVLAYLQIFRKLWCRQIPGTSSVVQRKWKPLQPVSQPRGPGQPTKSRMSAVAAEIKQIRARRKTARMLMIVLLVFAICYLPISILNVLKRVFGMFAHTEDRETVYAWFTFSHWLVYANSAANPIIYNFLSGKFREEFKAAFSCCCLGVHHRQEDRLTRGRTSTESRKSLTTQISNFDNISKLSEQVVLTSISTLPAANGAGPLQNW

HEK293 [9] = assay: membrane integrity loss in HEK cells – cell-based, fluorescence, cytotoxicity control for IDE activator project, dose response (AID 588440); format: functional; conditions: Homo sapiens;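 also: cytotoxicity by LDH release measuring loss of membrane integrity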
Insulin-degrading enzyme [10] = target: T1, Insulin-degrading enzyme; assay: recombinant IDE activation, cell-free – biochemical, fluorescence polarization, counter-screen for IDE activator project, dose response (AID 588681)
[11] = target: T4, Orexin/Hypocretin receptor type 1 (Homo sapiens, UniProt O43613); assay: (§2) Fluorescence-based cell-based high throughput dose response assay for antagonists of the orexin 1 receptor (OX1R; HCRTR1). [Related pubchem assays (depositor defined):AID434989, AID435008, AID463079, AID485270, AID492963, AID492964, AID492965, AID493232, AID504717, AID504718]; format: functional
T4 sequence (O43613 whole entry): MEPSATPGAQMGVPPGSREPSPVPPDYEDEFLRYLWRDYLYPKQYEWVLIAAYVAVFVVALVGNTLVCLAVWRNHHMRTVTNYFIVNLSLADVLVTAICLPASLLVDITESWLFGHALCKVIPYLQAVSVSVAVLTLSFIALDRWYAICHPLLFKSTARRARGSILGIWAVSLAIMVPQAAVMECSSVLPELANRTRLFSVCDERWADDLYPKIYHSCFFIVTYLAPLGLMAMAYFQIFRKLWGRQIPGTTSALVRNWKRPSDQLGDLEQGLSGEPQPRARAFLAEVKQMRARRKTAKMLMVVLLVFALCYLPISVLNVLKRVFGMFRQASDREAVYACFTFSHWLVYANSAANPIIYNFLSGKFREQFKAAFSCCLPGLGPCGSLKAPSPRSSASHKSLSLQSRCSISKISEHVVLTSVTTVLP

[12] = target: T4, Orexin/Hypocretin receptor type 1; assay: as §2, with “Homogeneous Time Resolved Fluorescence (HTRF)-based” for “Fluorescence-based”; format: functional
[13] = as §1, with “Fluorescence-based” for “Homogeneous time resolved fluorescence (HTRF)-based”, “cell-based high throughput” for “cell-based”, “CHO” for “CHO-K1”; format: functional
Orexin receptor type 2 [14] = target: T3, Orexin receptor type 2; assay: Counterscreen assay for antagonists of the orexin 1 receptor (OX1R; HCRTR1): Homogeneous Time Resolved Fluorescence (HTRF)-based cell-based dose response assay for antagonists of the orexin 2 receptor (OX2R; HCRTR2), run by assay provider.; format: functional
INS1 = assay: INS-1E survival protection against cytokine death – cell-based, luminescence, retest, dose response (AID 449756); format: functional; conditions: Rattus norvegicus;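 also: cell death triggered by IL-1 beta plus TNF-alpha plus IFN-gamma mixture; protective hits raise ATP signal compared with cytokine alone wells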
HEK293 [15] = assay: optical interference in Abeta FP readout, dose response, artefact control for IDE activator project, biochemical, fluorescence polarization (AID 588442); format: functional, cell-based; conditions: Homo sapiens

Row | IC50 [1] | Compound | AC50 [2] | AC50 [3] | AC50 [4] | AC50 [5] | AC50 [6] | also measured
1 | 63.5 µM (inactive) | CCCCC(=O)Nc1ccc(C(=O)NNC(=S)NC(=O)c2cccs2)cc1 |  |  |  |  |  | 
2 |  | Cn1c(NCc2c(O)ccc3ccccc23)nc2ccccc21 | 58.1 µM (active) | 22.1 µM (active) | 28.9 µM (active) | 40.6 µM (active) | 15.4 µM (active) | 
3 | > 122 µM (inactive) | CCN(CC)c1ccc(-c2nnc(S)n2-c2ccccc2)cc1 |  |  |  |  |  | 
4 |  | COc1ccc(OCc2n(CC(=O)OC3CC(C)CCC3C(C)C)c3ccccc3[n+]2C)cc1.[Cl-] (centres undefined) | 9.49 µM (active) | 16.4 µM (active) | 11 µM (active) | 17.2 µM (active) | 9.99 µM (active) | EC50 (Insulin-degrading enzyme [7]): 15.5 µM (inactive); Absolute IC50 (XBP1) (X-box-binding protein 1): 10 µM; IC50 (CHO-K1): > 66.2 µM (inactive); IC50 (Orexin receptor type 2 [8]): 8.9 µM (active); IC50 (HEK293 [9]): 17 µM (inactive); EC50 (Insulin-degrading enzyme [10]): > 54.7 µM (inactive); IC50 [11]: 8.69 µM (active); IC50 [12]: 63.1 µM (inactive); IC50 [13]: 15.3 µM (inactive); IC50 (Orexin receptor type 2 [14]): > 50 µM (inactive); AC50 (INS1): 3.9 µM (active); EC50 (HEK293 [15]): > 54.7 µM (inactive)
